Experimental data reported in article PMC7717570, “Deciphering the enzymatic target of a new family of antischistosomal agents bearing a quinazoline scaffold using complementary computational tools” (Journal of Enzyme Inhibition and Medicinal Chemistry, 2020).
Several values for one entry are separate records, joined by “and”; a condition that tells them apart may be missing. Identical values can stand only once.

Columns and labels:
[1] = tested on: Schistosoma mansoni mature worms; assay: In vitro S. mansoni worm killing; conditions: Schistosoma mansoni, 120 h, day 5, initial test (Table 2), read-out: Worm killing (% of total)
Description: The percentage reduction of worm or egg burden in each treated group was calculated. […] Results are expressed as mean ± SEM. A two-tailed, unpaired Student’s t-test was used to detect the significance of difference between the means of different groups. […] Stock solutions of 5 mM PZQ and the quinazoline derivatives 2–13 were prepared in DMSO. Concentrations of 100 µM, 50 µM, 25 µM, 10 µM and 5 µM were freshly prepared on the day of experiment in RPMI-1640 medium. All compounds were initially tested at 100 and 50 µM; those showing worm killing were further tested at 25, 10 and 5 µM. Worms were obtained from SBSC of TBRI. Six to eight worms were placed in 12-well tissue culture plates and fresh RPMI-1640 medium (supplemented with glutamine, 20% newborn calf serum and streptomycin, penicillin, and gentamicin), containing the indicated concentration of the test compound was added[20]^,[21]. Worms were incubated overnight in a CO2 incubator at 37 °C. On the 2nd day, worms were examined by microscopy, washed three times with normal saline, fresh medium was added and the incubation was continued. On the 3rd day, worm motility was observed and on the 4th day, medium was changed again. On day 5 (end of the observation period), worms were microscopically examined for their motility and appearance. Each concentration was tested in duplicate, and the final recording of percent worm mortality was determined as the number of dead worms [contracted and opaque] divided by the total number of worms × 100. Negative controls used medium without additions or medium with 2% DMSO; positive control media containing identical concentrations of PZQ were tested in parallel.

[2] = tested on: Schistosoma mansoni worm couples; assay: S. mansoni ovipositing capacity and coupling; conditions: initial test (Table 2); for inhibition at 50 µM / inhibition at 100 µM: Schistosoma mansoni, 120 h, read-out: Reduction in number of eggs (%)
Description: Stock solutions of 5 mM PZQ and the quinazoline derivatives 2–13 were prepared in DMSO. Concentrations of 100 µM, 50 µM, 25 µM, 10 µM and 5 µM were freshly prepared on the day of experiment in RPMI-1640 medium. All compounds were initially tested at 100 and 50 µM; those showing worm killing were further tested at 25, 10 and 5 µM. 12-well tissue culture plates were used, each well containing 6–8 worms with at least one worm couple. Worms were incubated overnight in a CO2 incubator at 37 °C. Each concentration was tested in duplicate wells. On day 4, eggs were counted and discarded and the medium was changed. On day 5 (end of observation period) newly deposited eggs were counted. The final egg number is the total count of days 4 and 5 for each concentration tested and the final recording of the percentage of egg reduction was determined as [the total number of eggs on days 4 and 5 of control – the total number of eggs on days 4 and 5 of treated]/the total number of eggs on days 4 and 5 of control × 100.

[3] = Microsomal stability, mouse liver microsomes (S9), Phase-I (CYP450-NADPH); type: in vitro ADME; conditions: CYP450-NADPH, 5 µM
Description: (§1) Mouse or human liver microsomes (S9), reduced nicotinamide adenine dinucleotide phosphate (NADPH) generating system solutions and uridine glucuronosyltransferase (UGT) reaction mix (BD Biosciences) were kept at −80 °C. The test compounds and reference compound diclofenac were formulated in DMSO at […]. The assay was carried out based on the BD Biosciences Guidelines for Use (TF000017 Rev1.0) with minor adaptations. The metabolic stability of the compounds was studied through the CYP450 superfamily (Phase-I metabolism) by fortification with NADPH and through UGT enzymes (Phase-II metabolism) by fortification with uridine diphosphate glucuronic acid (UDPGA). For CYP450 and other NADPH dependent enzymes, the compounds were incubated at 5 µM together with 0.5 mg/mL S9 in potassium phosphate buffer in a reaction started by the addition of 1 mM NADP. At defined time points, 20 µL was withdrawn from the reaction mixture and 80 µL cold acetonitrile (ACN) was added to inactivate the enzymes and precipitate the protein. The mixture was vortexed for 30 s and centrifuged at 4 °C for 5 min to collect the supernatant. For UGT enzymes, the compounds were incubated at 5 µM together with 0.5 mg/mL S9 in a reaction started by the addition of 2 mM UDPGA cofactor. The loss of parent compound was determined using liquid chromatography (UPLC) (Waters Aquity^TM) coupled with tandem quadrupole mass spectrometry (MS^2) (Waters Xevo^TM), equipped with an electrospray ionisation (ESI) interface and operated in multiple reaction monitoring (MRM) mode.

[4] = Microsomal stability, mouse liver microsomes (S9), Phase-II (UGT enzymes); type: in vitro ADME; conditions: UGT enzymes, 5 µM
Description: as §1

[5] = Microsomal stability, human liver microsomes (S9), Phase-I (CYP450-NADPH); type: in vitro ADME; conditions: CYP450-NADPH, 5 µM
Description: as §1

[6] = Microsomal stability, human liver microsomes (S9), Phase-II (UGT enzymes); type: in vitro ADME; conditions: UGT enzymes, 5 µM
Description: as §1

Row | SMILES | killing at 50 µM [1] | killing at 100 µM [1] | Uncoupling ([2]; 50 µM) | Uncoupling ([2]; 100 µM) | inhibition at 50 µM ([2]; 50 µM) | inhibition at 100 µM ([2]; 100 µM) | also measured
1 | COc1ccc(Cn2c(=O)c3cc(C)cc(Br)c3n(Cc3ccc(C(F)(F)F)cc3)c2=O)cc1 [compound 13, 8-Bromo-1-(4-(trifluoromethyl)benzyl)-3-(4-methoxybenzyl)-6-methylquinazolin-2,4(1H,3H)-dione] | 0% | 33% | Yes | Yes | 100% | 100% | 
2 | O=c1c2ccccc2n(Cc2ccc(C(F)(F)F)cc2)c(=O)n1Cc1ccc(F)cc1 [compound 2, 3-(4-Fluorobenzyl)-1-(4-(trifluoromethyl)benzyl)quinazolin-2,4(1H,3H)-dione] | 0% | 100% | No | Yes | 100% | 100% | 
3 | O=c1c2ccc(Br)cc2n(Cc2ccc(C(F)(F)F)cc2)c(=O)n1Cc1ccc(F)cc1 [compound 6, 7-Bromo-3-(4-fluorobenzyl)-1-(4-(trifluoromethyl)benzyl)quinazolin-2,4(1H,3H)-dione] | 0% | 88% | Yes | Yes | 100% | 100% | 
4 | COc1ccc(Cn2c(=O)c3ccc(Br)cc3n(Cc3ccc(C(F)(F)F)cc3)c2=O)cc1 [compound 7, 7-Bromo-1-(4-(trifluoromethyl)benzyl)-3-(4-methoxybenzyl)quinazolin-2,4(1H,3H)-dione] | 0% | 0% | No | No | 35% | 50% | 
5 | COc1ccc(Cn2c(=O)c3cc(Br)ccc3n(Cc3ccc(C(F)(F)F)cc3)c2=O)cc1 [compound 5, 6-Bromo-1-(4-(trifluoromethyl)benzyl)-3-(4-methoxybenzyl)quinazolin-2,4(1H,3H)-dione] | 0% | 100% | No | Yes | 31% | 100% | 
6 | Cc1cc(Br)c2c(c1)c(=O)n(Cc1ccc(F)cc1)c(=O)n2Cc1ccc(C(F)(F)F)cc1 [compound 12, 8-Bromo-3-(4-fluorobenzyl)-1-(4-(trifluoromethyl)benzyl)-6-methylquinazolin-2,4(1H,3H)-dione] | 0% | 0% | No | Yes | 50% | 100% | 
7 | COc1ccc(Cn2c(=O)c3ccccc3n(Cc3ccc(C(F)(F)F)cc3)c2=O)cc1 [compound 3, 1-(4-(Trifluoromethyl)benzyl)3-(4-methoxybenzyl)quinazolin-2,4(1H,3H)-dione] | 0% | 75% | Yes | Yes | 100% | 100% | 
8 | O=C(O)Cc1ccccc1Nc1c(Cl)cccc1Cl [Diclofenac, diclofenac, reference compound] |  |  |  |  |  |  | % Parent compound remaining upon incubation ([3]; 0 min): 100%; % Parent compound remaining upon incubation ([3]; 15 min): 87% and 61%; % Parent compound remaining upon incubation ([3]; 60 min): 48% and 27%; % Parent compound remaining upon incubation ([4]; 0 min): 100%; % Parent compound remaining upon incubation ([4]; 15 min): 41% and 34%; % Parent compound remaining upon incubation ([4]; 30 min): 44% and 32%; % Parent compound remaining upon incubation ([4]; 60 min): 34% and 30%; % Parent compound remaining upon incubation ([5]; 0 min): 100%; % Parent compound remaining upon incubation ([5]; 15 min): 27%; % Parent compound remaining upon incubation ([5]; 30 min): 5%; % Parent compound remaining upon incubation ([5]; 60 min): 1%; % Parent compound remaining upon incubation ([6]; 0 min): 100%; % Parent compound remaining upon incubation ([6]; 15 min): 11%; % Parent compound remaining upon incubation ([6]; 30 min): 9%; % Parent compound remaining upon incubation ([6]; 60 min): 9%
9 | O=c1c2cc(Br)ccc2n(Cc2ccc(C(F)(F)F)cc2)c(=O)n1Cc1ccc(F)cc1 [compound 4, 6-Bromo-3-(4-fluorobenzyl)-1-(4-(trifluoromethyl)benzyl)quinazolin-2,4(1H,3H)-dione] | 13% | 100% | Yes | Yes | 100% | 100% | 
10 | COc1ccc(Cn2c(=O)c3cc(OC)c(OC)cc3n(Cc3ccc(C(F)(F)F)cc3)c2=O)cc1 [compound 11, 1-(4-(Trifluoromethyl)benzyl)-6,7-dimethoxy-3-(4-methoxybenzyl)quinazolin-2,4(1H,3H)-dione] | 0% | 86% | Yes | Yes | 100% | 100% | 
11 | O=c1c2cc(Cl)ccc2n(Cc2ccc(C(F)(F)F)cc2)c(=O)n1Cc1ccc(F)cc1 [compound 8, 6-Chloro-3-(4-fluorobenzyl)-1-(4-(trifluoromethyl)benzyl)quinazolin-2,4(1H,3H)-dione] | 0% | 100% | Yes | Yes | 100% | 100% | 
